Read-outs that look alike come from different tables or passages of the source.
Tests used:
[1] = tested on: JJN3; experiment: MM cell viability assay (MTS proliferation); format: cell-based; conditions: Homo sapiens, JJN-3; 72 hours, average of n ≥ 8 determinations; read-out: MM cells EC50, JJN3
Experimental: (§1) Various MM cancer cell lines (Table 3 and FIGS. 5 and 6) were cultured in RPMI-1640 medium supplemented with 10% fetal bovine serum (Gibco BRL, Gaithersburg, Md.) supplemented with 2 mM L-glutamine in a 5% CO2 atmosphere at 37° C. EC50 values for each target compound were determined using a commercial MTS proliferation assay (Promega, Madison, Wis.) following the manufacturer's instructions. Briefly, compounds were diluted directly into culture medium and then applied to cells that were seeded in 96-well plates at a density 5,000 cells per well. Cells were incubated with the indicated final concentration of compound in a total media volume of 100 μl/well for 72 hours prior to the addition of the MTS reagent. Plates were incubated at 37° C. in the presence 5% CO2 for 2 hours prior to recording OD490 using a Tecan Infinite M200Pro microplate reader. Results were analyzed to obtain dose-response curves and EC50 calculations using GraphPad PRISM version 5 for the MacIntosh (GraphPad Software, San Diego, Calif.).

[2] = tested on: KMS28PE; experiment: MM cell viability assay (MTS proliferation); format: cell-based; conditions: Homo sapiens, KMS-28PE; 72 hours, average of n ≥ 8 determinations; read-out: MM cells EC50, KMS28PE
Experimental: as §1

[3] = tested on: RPMI-8226; experiment: MM cell viability assay (MTS proliferation); format: cell-based; conditions: Homo sapiens, 72 hours, average of n ≥ 8 determinations, read-out: MM cells EC50, RPMI-8226
[4] = target: T1, hFPPS (Homo sapiens (Human), UniProt P14324); experiment: biochemical
T1 sequence (P14324 whole entry): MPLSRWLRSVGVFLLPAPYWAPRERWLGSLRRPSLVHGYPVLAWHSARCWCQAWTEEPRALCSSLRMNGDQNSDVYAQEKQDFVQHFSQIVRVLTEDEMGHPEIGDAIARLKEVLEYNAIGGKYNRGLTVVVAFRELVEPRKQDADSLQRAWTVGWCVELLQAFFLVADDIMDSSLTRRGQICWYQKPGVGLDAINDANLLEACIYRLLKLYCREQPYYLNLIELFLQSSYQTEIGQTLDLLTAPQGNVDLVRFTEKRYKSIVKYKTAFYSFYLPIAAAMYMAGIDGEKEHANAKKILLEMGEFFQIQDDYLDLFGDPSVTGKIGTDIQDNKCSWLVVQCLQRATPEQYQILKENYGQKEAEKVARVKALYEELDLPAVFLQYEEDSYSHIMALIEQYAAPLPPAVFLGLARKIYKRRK

[5] = target: T1, hFPPS; conditions: read-out: hFPPS IC50
[6] = target: recombinant human GGPPS (Homo sapiens (Human), UniProt O95749); experiment: In vitro hGGPPS inhibition assay; format: biochemical; conditions: for IC50: wild-type hGGPPS enzyme, average of n ≥ 3 determinations; for selectivity improved for inhibiting hGGPPS vs hFPPS: starting from the original hits, e.g. C-5
Chain of recombinant human GGPPS (O95749 whole entry): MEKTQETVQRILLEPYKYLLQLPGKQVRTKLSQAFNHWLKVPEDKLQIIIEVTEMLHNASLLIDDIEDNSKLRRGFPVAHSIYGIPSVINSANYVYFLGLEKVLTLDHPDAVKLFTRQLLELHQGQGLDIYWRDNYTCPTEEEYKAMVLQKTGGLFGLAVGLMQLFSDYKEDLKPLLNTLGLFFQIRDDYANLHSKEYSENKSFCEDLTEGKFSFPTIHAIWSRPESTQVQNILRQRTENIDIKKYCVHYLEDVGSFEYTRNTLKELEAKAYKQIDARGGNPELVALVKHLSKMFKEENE

[7] = tested on: normal human bronchial cells (NHBE); experiment: Cell viability (CellTiter-Glo), normal cells; format: cell-based; conditions: compared to doxorubicin, FIG. 3a
Experimental: (§2) NCI-ADR-RES cells were obtained from National Cancer Institute (NCI) and all other cell lines were obtained from the American Type Culture Collection (ATCC). NHBE cells were maintained in Bronchial Epithelial Cell Growth Medium (BEGM) supplemented with 10% FBS (Multicell) and 2 mM L-glutamine (Gibco/Life Technologies). All other cells were maintained in culture using Roswell Park Memorial Institute (RPMI) 1640 media supplemented with 10% FBS (Multicell), Penicillin (100 U/mL), Streptomycin (100 ug/mL) and 2 mM L-glutamine (Gibco/Life Technologies). Cells were plated in logarithmic growth phase in each well of clear bottom multiwell plates and cultured 16-24 h before drug treatment. […]
(§3) Cell viability was determined by cellular quantitation of adenosine triphosphate (ATP) using the CellTiter-Glo Luminescent Cell Viability Assay Kit (Promega Corporation, Cat. No. G7571). Briefly, the CellTiter-Glo «one-mix-measure» reagent, containing both the cell permeabilizing agent and the Ultra-Glo luciferase, was added to the cell culture according to manufacturers' instructions allowing the free ATP to be released from viable cells and subsequently converted into luminescence. The luminescence generated in the reaction is directly proportional to cell viability and was quantified in a luminometer (PHERAstar FS, BMG Labtech) […]

[8] = in vitro; conditions: male, CD-1, mouse, microsomes
[9] = in vitro; conditions: Sprague-Dawley, rat, microsomes
[10] = in vitro; conditions: human, microsomes
[11] = Lipophilicity by C-18 reversed phase HPLC relative retention; conditions: versus zolodronic acid
[12] = tested on: phosphorylated Tau protein (P-Tau); experiment: Phosphorylation of the tau protein in immortalized human neurons; format: cell-based; conditions: immortalized human neurons (SH-SYSY)
[13] = tested on: SH-SYSY neurons; experiment: LDH toxicity assay in immortalized human neurons; format: cell-based
[14] = tested on: acute monocytic leukemia (MOLM-13) cells; experiment: Cancer cell viability; format: cell-based, human; conditions: compared to zolendronate (ZOL), FIG. 4
Experimental: as §2, §3

[15] = tested on: chronic myelogenous leukemia (K562) cells; experiment: Cancer cell viability; format: cell-based, human; conditions: compared to zolendronate (ZOL), FIG. 4
Experimental: as §2, §3

[16] = tested on: multiple myeloma cell line RPMI-8226; experiment: Apoptosis assay in multiple myeloma cells (flow cytometry); format: cell-based, human; conditions: 100 nM, 500 nM, and 1 μM, 72 h, FIG. 6
Experimental: To determine the ability of compounds of the application to induce MM cell lines to undergo apoptosis, cells were seeded at a density of 7.5×10^5/mL in medium supplemented with 10% FBS with increasing concentrations of compound (i.e. compound that inhibits hGGPPS) or vehicle alone. Following a 72 h incubation, apoptosis was determined by double staining with APC Annexin V (BD Biosciences, Mississauga ON) and eFluor 780 Viability dye (ThermoFisher Scientific) according to the manufacturer's directions. Stained samples were acquired on a BD FACSCanto II instrument (BD Biosciences, Mississauga ON) and post-acquisition analyses were performed using FlowJo (V10) software. Apoptosis of multiple myeloma cells was also determined by flow cytometry by double staining cells with Allophycocyanin (APC) conjugated Annexin V and a V450 conjugated Mouse Anti-Human CD138 monoclonal antibody, following the manufacturer's instructions (BD Biosciences, Mississauga ON).

EC50 [3] [µM]	IC50 [5] [µM]	Ratio of hFPPS IC50 vs hGGPPS IC50 [6]	IC50 [6] [µM]	Structure (SMILES)	EC50 [1] [µM]	EC50 [2] [µM]	further results
0.12	–	–	–	Cc1ccc(C(=O)Nc2cccc(-c3nc(NC(P(=O)(O)O)P(=O)(O)O)c4ccsc4n3)c2)cc1 [Compound I-18, (((2-(3-(4-methylbenzamido)phenyl)thieno[2,3-d]pyrimidin-4-yl)amino)methylene)bis(phosphonic acid)]	0.6	0.62	IC50 [4]: 2.4 µM
0.14	–	–	0.065	COc1ccc(NC(=O)c2cccc(-c3nc(NC(P(=O)(O)O)P(=O)(O)O)c4ncsc4n3)c2)cc1F [Compound I-43]	–	–	–
0.1	2	31	0.064	O=C(Nc1cccc(-c2nc(NC(P(=O)(O)O)P(=O)(O)O)c3ccsc3n2)c1)c1ccccc1 [Compound I-13]	0.5	0.55	selectivity improved for inhibiting hGGPPS vs hFPPS [6]: approximately 30 fold
0.38	1	12	0.085	COc1ccc(C(=O)Nc2cccc(-c3nc(NC(P(=O)(O)O)P(=O)(O)O)c4ccsc4n3)c2)cc1 [Compound I-5, (((2-(3-(4-methoxybenzamido)phenyl)thieno[2,3-d]pyrimidin-4-yl)amino)methylene)bis(phosphonic acid)]	1.3	1.4	Reduction in P-Tau/Total-tau protein [12]: 43%; LDH Toxicity Assay (relative toxicity compared to the control samples) [13]: None observed
0.11	3	57	0.053	O=C(Nc1ccccc1)c1cccc(-c2nc(NC(P(=O)(O)O)P(=O)(O)O)c3ccsc3n2)c1 [Compound I-6, (((2-(3-(phenylcarbamoyl)phenyl)thieno[2,3-d]pyrimidin-4-yl)amino)methylene)bis(phosphonic acid)]	0.34	0.7	selectivity improved for inhibiting hGGPPS vs hFPPS [6]: ~55 fold; blocking viability of cancer cells [14]: more effective; blocking viability of cancer cells [15]: more effective
0.2	–	–	0.085	COc1ccc(NC(=O)c2cccc(-c3nc(NC(P(=O)(O)O)P(=O)(O)O)c4sccc4n3)c2)cc1F [Compound I-42, (((2-(3-((3-fluoro-4-methoxyphenyl)carbamoyl)phenyl)thieno[3,2-d]pyrimidin-4-yl)amino)methylene)bis(phosphonic acid)]	–	–	–

Second part, the molecule before the results:

Structure (SMILES)	EC50 [3] [µM]	IC50 [5] [µM]	Ratio of hFPPS IC50 vs hGGPPS IC50 [6]	IC50 [6] [µM]	EC50 [1] [µM]	EC50 [2] [µM]	further results
O=P(O)(O)C(Nc1ncnc2sc(-c3ccccc3)cc12)P(=O)(O)O [Compound C-10, reference compound]	–	0.2	–	–	–	–	–
O=P(O)(O)C(Nc1ncnc2sc(-c3ccc(C(F)(F)F)cc3)cc12)P(=O)(O)O [Compound C-12, reference compound]	> 50	0.023	>4 × 10^−5	~10000	> 10	–	–
O=P(O)(O)C(Nc1ncnc2sc(-c3ccc(OC4CC4)cc3)cc12)P(=O)(O)O [Compound C-13, reference compound]	> 50	0.014	>7 × 10^−5	~10000	> 10	–	–
COc1ccc(NC(=O)c2cccc(-c3nc(NC(P(=O)(O)O)P(=O)(O)O)c4ccsc4n3)c2)cc1F [Compound I-37, (((2-(3-((3-fluoro-4-methoxyphenyl)carbamoyl)phenyl)thieno[2,3-d]pyrimidin-4-yl)amino)methylene)bis(phosphonic acid)]	0.15	–	–	–	0.51	0.17	toxicity to normal human bronchial cells [7]: less toxic; half-life [8]: 2.13 h; half-life [9]: 3.12 h; half-life [10]: 2.57 h; difference in relative retention time on C-18 reversed phase HPLC column (lipophilicity) [11]: more than 7 min
O=P(O)(O)C(Nc1nc(-c2ccccc2)nc2sccc12)P(=O)(O)O [Compound C-5, reference compound]	–	–	~7	0.082	–	–	IC50 [4]: 0.54 µM
O=P(O)(O)C(O)(Cc1cccnc1)P(=O)(O)O [RIS, Risedronic acid, reference compound]	–	–	–	–	10	10.6	–
COC(C(=O)Nc1cccc(-c2nc(NC(P(=O)(O)O)P(=O)(O)O)c3ccsc3n2)c1)c1ccccc1 (stereo not drawn) [Compound I-24]	–	–	–	–	–	–	apoptosis [16]: induce apoptosis
O=P(O)(O)C(O)(Cn1ccnc1)P(=O)(O)O [ZOL, zoledronic acid, reference compound]	–	–	–	–	5	6.4	Reduction in P-Tau/Total-tau protein [12]: 50%

— US11279719B2, “Substituted bicyclic pyrimidine-based compounds and compositions and uses thereof” (priority 2017, dated 2022)
